Patent EP0375183A1, “Antiviral dimers and trimers” (SCHERING CORPORATION, priority 1988, dated 1990)

Tested on: strain HIV-III of the Human Immunodeficiency virus (HIV)
Assay: Protection of HIV-infected human lymphocyte cell lines from virus destruction (syncytia formation, cell rounding/cytopathology), microtiter test
Type: cell-based
Settings: Human immunodeficiency virus 1, Lymphocyte, continuous cell lines derived from human lymphocytes infected with HIV, incubated 7 to 14 days, microscopic inspection, tests (a) and (b), read-out: Protection of Cells
Procedure: Continuous cell lines derived from human lymphocytes are grown in a microtiter test system. The cells are infected with strain […] of the Human Immunodeficiency virus (HIV), a standard strain isolated from a patient with Acquired Immune Deficiency Syndrome (AIDS). The treated cells are incubated for 7 to 14 days, and the treated cells are inspected by microscope to determine (a) prevention of synctia (cell to cell fusion) formation induced by HIV, or (b) prevention of cell rounding and prevention of HIV caused cytopathology. Such inspections indicate the ability of the compound to prevent cell killing by the virus. Additionally, biochemical determination of the cell media is made to ascertain the ability of the compound to prevent formation of viral products (reverse transcriptase, p24 antigen, or other products), and prevention of formation of more HIV itself.
The control refers to the treatment without a compound of the present invention.

Cc1cn([C@H]2C[C@H](N=[N+]=[N-])[C@@H](COP(=O)(O)OCC3CCC(n4cnc5c(N)ncnc54)C3)O2)c(=O)[nH]c1=O (some centres unmarked) [Compound of Example 1, 5′-O-[[[3-(6-Amino-9H-purin-9-yl)cyclopentyl]methoxy]hydroxyphosphinyl]-3′-azido-3′-deoxy-thymidine]
inhibition at 32 µg/mL (Concentration 32 µg/ml): 100%
inhibition at 100 µg/mL (Concentration 100 µg/ml): 100%
